From patent US5629298A, “Adenosine as a positive inotrop in the compromised heart” (University of Massachusetts Medical Center, priority 1995, dated 1997)

System: rat ventricular myocytes
Assay: Contractile function of individual ventricular myocytes (line scan camera edge detection, paced at 0.5 Hz)
Type: cell-based
Method: Primary cultures of adult rat ventricular myocytes were prepared essentially according to previously described methods (Romano et al., Am. J. Physiol. 257:H1088 (1989)). Two male Sprague-Dawley rats (Charles River, Wilmington, Mass. or Harlan, Indianapolis, Ind.) were decapitated, and the hearts were rapidly excised and constant pressure (70 cm H2) and nonrecirculated) perfused for 10 minutes through the aortas with filtered (0.45 μm membrane filter) perfusing solution (NaCl, 118 mM; glucose, 10 mM; NaHCO3 25 mM; KCl, 4.69 mM; MgSO4 1.18 mM; and KH2 PO4, 1.18 mM; (pH 7.4)), to which […] was added, at 37° C. After equilibration, the hearts were constant pressure perfused with fresh physiological saline ("PS") containing no added Ca^2+ until spontaneous contractions ceased (i.e., ~30 seconds). The hearts were then perfused for 4-10 minutes in a nonrecirculating manner with PS containing 0.73 mg/ml collagenase, 0.16 mg/ml hyaluronidase, 1 mg/ml recrystallized bovine serum albumin ("BSA") and 48.4 μM Ca^2+ at a rate of 3-4 ml/min/heart. Ventricles, free of atria, were removed from the perfusion system, cut into 8 pieces and placed in a 50 ml Erlenmeyer flask with 5 ml of PS containing 0.73 mg/ml collagenase, 0.16 mg/ml hyaluronidase, 2.5 mg/ml BSA, and 50 μM Ca^2+ (incubation solution). The flask was gently shaken (40 cycles/min) in a reciprocating water bath with continuous gassing (95% O2, 5% CO2) for 7 minutes at 37° C. The incubation solution was aspirated and this shaking procedure was repeated with fresh incubation solution 3-5 times depending on the likelihood that the tissue was ready to dissociate. After the final incubation period, the solution was aspirated and replaced with 10 ml of fresh incubation solution. The flask was then shaken rapidly (120 cycles/min) for 10 minutes with gassing to dissociate the myocytes. The flask contents were filtered through a 250 μm nylon mesh into a 50 ml polypropylene centrifuge tube, to which 40 ml of PS containing 5.95 mg/ml BSA and 99.7 μm Ca^2+ (wash solution) was gradually added.
The myocytes were allowed to settle for 15 minutes, and the upper two thirds of the wash solution was aspirated. Upon the addition of 30-35 ml of wash solution, this settling step was repeated. The wash solution was aspirated and the myocyte pellet was resuspended in 10 ml of minimum essential medium ("MEM"). The myocyte suspension was allowed to settle for 5 minutes and then brought to a final volume of 22 ml with MEM. Two milliliters of the myocyte suspension was seeded onto each of 60 mm culture dishes containing 2 ml of MEM.
The contractile function of individual myocytes was assessed by dispersing 50-100 cells in a 506 μl myocyte chamber (11×23×2 mm deep). The chamber (FIG. 1) was continuously suffused (850 μl/min) with fresh suffusion solution ("SS") in mM: 136.4 NaCl, 4.7 KCl, 1.0 CaCl2, 10 hydroxyethylpiperzine-ethanesulfonicacid (HEPES), 1.0 NaHCO3, 1.2 MgSO4, 1.2 KH2 PO4, 10 glucose, 0.6 ascorbate, 1.0 pyruvate) at 20° C. The chamber was mounted on an inverted microscope stage and contained platinum wire electrodes for initiating myocyte contraction at 0.5 Hz (voltage 10% above threshold for 5 msec duration).
The image of the myocyte was projected via an inverted microscope at 300× onto a line scan camera (Fairchild, Model 1600R) containing a linear array (1×3456) of photodiodes. When aligned with the longitudinal axis of the cell the camera detected the movement of the 2 ends of the myocyte upon contraction (shortening and relengthening). […] When the myocyte was transilluminated, both ends of the cell were easily discriminated. Myocyte length and length change with respect to time for a single contraction was measured by determining the pixels in which the appropriate transitions between light and dark occurred. The line scan camera was calibrated with a stage micrometer scaled in 10 μm divisions. The signals from the camera were directed to a Hewlett Packard computer (Model Vectra RS/20C). […]

[1] = 100 μM adenosine administered together with 0.2 μM DPCPX
[2] = Table 6, 10^-5 M SHA-082, 10^-5 M NECA, 10^-4 M adenosine, 2 × 10^-7 M DPCPX, 10^-5 M CGS-15943, mean ± SE, N = 6

For Nc1ncnc2c1ncn2[C@@H]1O[C@H](CO)[C@@H](O)[C@H]1O [adenosine], which “increase in +dL/dtmax” value [1] is on record?
Its value is 29%.

And the “increase in DS” value [1]?
Its value is 20%.

What about the “increase in LC” value [1] of the same compound?
Its value is 35%.

What about the “increase in TPS” value [1] of the same compound?
The value was 27%.

What about the “increase in TR” value [1] of the same compound?
The value was 37%.

What about the “effect on myocyte contractility when administered alone” value (100 μM adenosine or 0.2 μM DPCPX) of the same compound?
Its value is “without effect”.

And the “+dL/dtmax, maximal rate of shortening” value [2]?
The value was 180 ± 10 μm/msec.

What about the “-dL/dtmax, maximal rate of relaxation” value [2] of the same compound?
Its value is 151 ± 10 μm/msec.

And the “DS, duration of shortening” value [2]?
The value was 293 ± 16 ms.

What about the “LC, maximum length change (shortening) with contraction” value [2] of the same compound?
The value was 16 ± 1 μm.

What about the “TPS, time-to-peak shortening” value [2] of the same compound?
Its value is 120 ± 4 ms.

And the “TR, time to 75% relaxation” value [2]?
The value was 281 ± 12 ms.
